Source: US8101780B2, “Crystalline form of 3-(difluormethyl)-1-methyl-N-(3′,4′,5′-trifluor[1,1′-biphenyl]-2-yl)-1H-pyrazol-4-carboxamide” (BASF SE, priority 2007, dated 2012)

Key:
Assay type in all cases: physicochemical
[1] = Slurry examples: forms suspended in water at 30° C., stirred, XRD analysis; settings: magnetic stirrer
Experimental: Slurry Examples Proving the Stability of Form B:
The form in question or mixtures of different forms of 3-(difluoromethyl)-1-methyl-N-(3′,4′,5′-trifluoro[1,1′-biphenyl]-2-yl)-1H-pyrazole-4-carboxamide were suspended in water at 30° C.

[2] = Phase conversion of the amorphous form at room temperature
Excerpt: The phase transformation can be seen for example in a DSC measurement or under a hot stage microscope.

[3] = Formulation stability upon storage at 40° C. for one week (sedimentation, particle size, crystalline modification by DSC and PXRD); settings: SC formulation
Experimental: The stability of the crystalline forms was tested by formulating form A or form B according to examples 1 and 2 and analyzing the formulation stability in the form of sedimentation, particle size growth and change in crystalline modification.
The obtained formulations were assessed for their stability upon storage at 40° C. for one week. Microscopic pictures of the formulation were taken before and after storage at 40° C. to examplify the change in particle size. Dispersion stability was assessed using a 2% dilution of the formulation in water in a conical cylinder. The sedimentation volume is recorded after 2 hours of standing. The sediment was collected and analysed using DSC and powder diffraction diffractometry to characterized the solid sediment (giving thus evidence of the sediment amount and crystalline modification present in the sedimentation).
This would in practice be very unfavourable and cause blocking of nozzle during the application and inhomogeneous distribution of the active ingredient into the formulation.

Cn1cc(C(=O)Nc2ccccc2-c2cc(F)c(F)c(F)c2)c(C(F)F)n1 [amorphous form, 3-(Difluormethyl)-1-methyl-N-(3′,4′,5′-trifluor[1,1′-biphenyl]-2-yl)-1H-pyrazol-4-carboxamide]
Conversion of solid form in water suspension (XRD analysis) ([1]; after 1 day): converted (based on XRD analysis) into form B | Conversion of solid form on standing [2]: converts at room temperature slowly to crystalline form A or typically to mixtures of form A and form B

Cn1cc(C(=O)Nc2ccccc2-c2cc(F)c(F)c(F)c2)c(C(F)F)n1 [form A, 3-(Difluormethyl)-1-methyl-N-(3′,4′,5′-trifluor[1,1′-biphenyl]-2-yl)-1H-pyrazol-4-carboxamide]
Phase transformation of the formulated active ingredient (DSC and PXRD) [3]: converted fully into needle like crystals of form B | Conversion of solid form in water suspension (XRD analysis) ([1]; after 2 days): converted (based on XRD analysis) into form B
